According to patent publication US9487462B2, “Inhibitors of matrix metalloproteinases” (PharmaHungary 2000 Kft., priority 2010, dated 2016):
Structures can show the parent of a compound that is named as a salt.

Tests used:
[1] = target: MMP2 (Homo sapiens, UniProt P08253); assay: MMP activity assay (fluorogenic substrate), MMP2 catalytic domain; type: biochemical; settings: Table 2; read-out: MMP2 IC50
Method: (§1) MMP activity assays were conducted as follows: MMP2, MMP9, MMP13 catalytic domain was expressed in E. coli in form of inclusion bodies followed by refolding and purification.
(§2) The Protocol of the Activity Assay:
(§3) Stock solution of substrate (Mca-Lys-Pro-Leu-Gly-Leu-Dpa-Ala-Arg-NH2) was prepared in DMSO at a concentration of 6 mM. Assays were performed in an assay buffer (50 mM Tris pH 7.5, 300 mM NaCl, 10 μM ZnSO4, 5 mM CaCl2, 0.005% Brij-35). The final DMSO concentration in all assays was 1.0%. […] The assays were carried out at 37° C. The fluorescence changes, resulting from the substrate cleavage, were detected using excitation at 340 nm and emission wavelength of 405 nm using a Wallac 1420 Microplate Reader. The reaction mixtures were preincubated with the inhibitors for 30 minutes. The reactions were started by the addition of MMP substrate, and the fluorescence intensity changes were measured after 60 minutes. The obtained fluorescence values were normalized and % inhibition values calculated. Dose response curves were determined from 6 concentration points using three fold dilution steps, each concentration point was determined in duplicate. IC50 values were calculated from the dose response curves.

[2] = target: MMP9 (Homo sapiens, UniProt P14780); assay: MMP activity assay (fluorogenic substrate), MMP9 catalytic domain; type: biochemical; settings: Table 2
Method: as §1, §2, §3

[3] = target: MMP13 (Homo sapiens (Human), UniProt P45452); assay: MMP activity assay (fluorogenic substrate), MMP13 catalytic domain; type: biochemical; settings: Table 2; read-out: MMP13 IC50
Method: as §1, §2
as §3, with “The fluorescence changes, resulting from the substrate cleavage, were detected using excitation at 340 nm and emission wavelength of 405 nm using a Wallac 1420 Microplate Reader.” left out

[4] = Cytotoxicity, alamarBlue viability, HCT116; type: cell-based; settings: human, HCT116 colon tumor cells, 48 hours incubation, read-out: HCT116 LC50
Method: (§4) Beside the inhibitory effect on MMPs we tested the cytotoxicity of the selected compounds. These measurements were done in parallel on two cell lines. One of them was the healthy human fibroblast cell line MRC-5 while the other was the human colon tumor cell line HCT116. The viability of the cells was monitored using alamarBlue. This dye is reduced by the cells resulting in an increased fluorescent signal which is proportional to the number of living cells. Cells were incubated with the dilutions of the tested compounds for 48 hours then alamarBlue was added to them for 4 hours. After that the fluorescence changes were detected using excitation at 540 nm and emission wavelength of 590 nm by a Wallac 1420 Microplate Reader. IC50 values were determined for the compounds using six concentrations and duplicate points for each concentration.

[5] = target: MMP1 (Homo sapiens (Human), UniProt P03956); assay: MMP activity assay (fluorogenic substrate), MMP1; type: biochemical; settings: Table 2; read-out: MM1 IC50
Sequence of MMP1 (P03956 100-469, species assumed): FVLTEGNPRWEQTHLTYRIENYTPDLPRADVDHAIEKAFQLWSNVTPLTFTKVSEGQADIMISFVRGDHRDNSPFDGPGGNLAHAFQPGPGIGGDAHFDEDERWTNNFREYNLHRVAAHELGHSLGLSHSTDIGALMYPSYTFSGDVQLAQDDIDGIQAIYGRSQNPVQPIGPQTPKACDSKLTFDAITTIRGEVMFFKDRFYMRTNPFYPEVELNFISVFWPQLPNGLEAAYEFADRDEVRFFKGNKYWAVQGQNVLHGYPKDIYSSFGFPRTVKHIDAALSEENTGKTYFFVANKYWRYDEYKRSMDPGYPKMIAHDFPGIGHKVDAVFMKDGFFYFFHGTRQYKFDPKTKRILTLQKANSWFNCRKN

[6] = Cytotoxicity, alamarBlue viability, MRC-5; type: cell-based; settings: human, MRC-5 fibroblast cells, 48 hours incubation, read-out: MRC-5 LC50
Method: as §4

[7] = system: neonatal rat cardiac myocytes; assay: Cytoprotective effect in cardiac myocytes subjected to hypoxia and reoxygenation; type: cell-based
Method: Neonatal rat hearts were digested and isolated cardiomyocytes were plated onto 24-well plastic plates at […]. The cells were maintained at 37° C. in a humidified atmosphere of 5% CO2 and 95% air in a CO2 incubator until confluence was reached. Cultures at day 3 were used for treatments. Cells were kept under normoxic or simulated ischemic conditions, i.e. the growth medium was changed to a normoxic or hypoxic solution and the cells were incubated under 95% air and 5% CO2 or 95% N2 and 5% CO2 at 37° C. for 4 h, respectively as described in detail (Gorbe A, Giricz Z, Szunyog A, Csont T, Burley D S, Baxter G F, Ferdinandy P. Role of cGMP-PKG signaling in the protection of neonatal rat cardiac myocytes subjected to simulated ischemia/reoxygenation. Basic Res Cardiol. 105:643-650, 2010). The positive control ilomastate (0.5 microM) and MMP-inhibitors at different effective concentrations (EC 5, EC 10, EC 20, and EC50 as determined in previous test examples) were applied during normoxia or simulated ischemia and also during reoxygenation. The vehicle was DMSO. Cell viability was determined after Calcein A M fluorescent staining as described (Karliner J S, Honbo N, Summers K, Gray M O, Goetzl E J. The lysophospholipids sphingosine-1-phosphate and lysophosphatidic acid enhance survival during hypoxia in neonatal rat cardiac myocytes. J Mol Cell Cardiol, 33:1713-7, 2001). Total cell count was determined after digitonin treatment to permeabilize the cells by using propidium iodine fluorescent staining (Roy S S, Hajnoczky G. Calcium, mitochondria and apoptosis studied by fluorescence measurements. Methods. 46:213-223, 2008).

Row | SMILES | IC50 [1] [µM] | IC50 [2] [µM] | IC50 [3] [µM] | CC50 at 48 h [4] [µM] | IC50 [5] [µM] | CC50 at 48 h [6] [µM] | other results
1 | O=C(O)c1cnc(CCc2ccccc2)[nH]1 [Compound 36, 2-Phenethyl-3H-imidazole-4-carboxylic acid] | > 500 | > 500 | 300 | – | – | – | –
2 | O=C(O)c1csc(CN(Cc2ccccc2)Cc2ccccc2)n1 [Compound 7, 2-[(Dibenzylamino)methyl]-1,3-thiazole-4-carboxylic acid] | 10 | 13 | 3.2 | 73 | 11 | 117 | –
3 | O=C(O)c1csc(CN(Cc2ccc(OCc3cccnc3)cc2)Cc2cccc(F)c2)n1 [Compound 8, 2-[({[4-(Pyridin-3-ylmethoxy)phenyl]methyl}[(3-fluorophenyl)methyl]amino)methyl]-1,3-thiazole-4-carboxylic acid] | – | – | – | – | – | – | Cytoprotective effect, % cell survival as compared to vehicle DMSO ([7]; normoxia, EC5 concentration 0.7 microM): 99 ± 4%; Cytoprotective effect, % cell survival as compared to vehicle DMSO ([7]; normoxia, EC10 concentration 2.0 microM): 103 ± 4%; Cytoprotective effect, % cell survival as compared to vehicle DMSO ([7]; normoxia, EC20 concentration 6.0 microM): 119 ± 5 %; Cytoprotective effect, % cell survival as compared to vehicle DMSO ([7]; normoxia, EC50 concentration 18.0 microM): 127 ± 4 %; Cytoprotective effect, % cell survival as compared to vehicle DMSO ([7]; simulated ischemia, EC5 concentration 0.7 microM): 117 ± 12%; Cytoprotective effect, % cell survival as compared to vehicle DMSO ([7]; simulated ischemia, EC10 concentration 2.0 microM): 120 ± 8%; Cytoprotective effect, % cell survival as compared to vehicle DMSO ([7]; simulated ischemia, EC20 concentration 6.0 microM): 144 ± 25%; Cytoprotective effect, % cell survival as compared to vehicle DMSO ([7]; simulated ischemia, EC50 concentration 18.0 microM): 107 ± 8%
4 | CCOC(=O)c1csc(CN(Cc2ccc(F)cc2)Cc2ccc(OCc3cccnc3)cc2)n1 [Compound 2, Ethyl 2-({[(4-fluorophenyl)methyl]({[4-(pyridin-3-ylmethoxy)phenyl]methyl})amino}methyl)-1,3-thiazole-4-carboxylate] | 105 | 163 | 3.7 | 0.5 | 185 | 0.8 | –
5 | CCOC(=O)c1csc(CN(Cc2ccncc2)Cc2ccc(OCc3ccccc3)cc2)n1 [Compound 20, Ethyl 2-[({[4-(benzyloxy)phenyl]methyl}(pyridin-4-ylmethyl)amino)methyl]-1,3-thiazole-4-carboxylate] | > 500 | > 500 | 7.5 | 16 | 325 | 13 | –
6 | CCOC(=O)c1csc(CN(Cc2ccc(F)cc2)Cc2ccc(OCc3ccccc3)cc2)n1 [Compound 11, Ethyl 2-[({[4-(benzyloxy)phenyl]methyl}[(4-fluorophenyl)methyl]amino)methyl]-1,3-thiazole-4-carboxylate] | – | – | – | 5.8 | – | 12 | –
7 | O=C(O)c1csc(CN(Cc2ccncc2)Cc2ccc(OCc3ccccc3)cc2)n1 [Compound 13, 2[({[4-(Benzyloxy)phenyl]methyl}(pyridin-4-ylmethyl)amino)methyl]-1,3-thiazole-4-carboxylic acid] | 54 | > 500 | 1.5 | 20 | 115 | 11 | –
8 | O=C(c1cnc(CCc2ccccc2)[nH]1)N1CCCC1 [Compound 38, (2-Phenethyl-3H-imidazol-4-yl)-pyrrolidin-1-yl-methanone] | 62 | 80 | 54 | – | – | – | –
9 | FC(F)(F)c1cnc(CCc2ccccc2)[nH]1 [Compound 35, 2-Phenethyl-5-trifluoromethyl-1H-imidazole] | > 500 | > 500 | 500 | – | – | – | –
10 | O=C(O)c1csc(CN(Cc2ccc(F)cc2)Cc2ccc(OCc3ccncc3)cc2)n1 [Compound 9, 2-({[(4-Fluorophenyl)methyl]({[4-(pyridin-4-ylmethoxy)phenyl]methyl})amino}methyl)-1,3-thiazole-4-carboxylic acid] | 8 | 8.8 | 1.24 | 4.7 | 47 | 12 | –
11 | FC(F)(F)c1cnc(-c2ccccc2)[nH]1 [Compound 39, 2-Phenyl-5-trifluoromethyl-1H-imidazole] | > 500 | > 500 | 340 | – | – | – | –
12 | CCOC(=O)c1csc(CN(Cc2ccc(F)cc2)Cc2ccc(OCc3ccncc3)cc2)n1 [Compound 18, Ethyl 2-({[(4-fluorophenyl)methyl]({[4-(pyridin-4-ylmethoxy)phenyl]methyl})amino}methyl)-1,3-thiazole-4-carboxylate] | > 500 | 230 | 13 | 0.04 | > 500 | 2.9 | –
13 | Cn1cc(C(F)(F)F)nc1CN(Cc1ccc(F)cc1)Cc1ccc(OCc2ccccc2)cc1 [Compound 26, {[4-(Benzyloxy)phenyl]methyl}[(4-fluorophenyl)methyl]{[1-methyl-4-(trifluoromethyl)-1H-imidazol-2-yl]methyl}amine] | > 500 | > 500 | 34 | 25 | > 500 | 40 | –
14 | O=C(O)c1cnc(-c2ccccc2)[nH]1 [Compound 40, 2-Phenyl-3H-imidazole-4-carboxylic acid] | 137 | 250 | 165 | – | – | – | –
15 | O=C(O)c1csc(CN(Cc2ccc(OCc3ccccc3)cc2)CC(c2ccccc2)c2ccccc2)n1 [Compound 6, 2-[({[4-(Benzyloxy)phenyl]methyl}(2,2-diphenylethyl)amino)methyl]-1,3-thiazole-4-carboxylic acid] | – | – | – | 3.5 | – | 18 | –
16 | COC(=O)c1cnc(CCc2ccccc2)[nH]1 [Compound 37, 2-Phenethyl-3H-imidazole-4-carboxylic acid methyl ester] | 66 | 145 | > 500 | – | – | – | –
17 | O=C(O)c1c[nH]c(CNCc2ccc(OCc3cccnc3)cc2)n1 [Compound 31 HCl, 2-[({[4-(Pyridin-3-ylmethoxy)phenyl]methyl}amino)methyl]-1H-imidazole-4-carboxylic acid] | – | – | – | – | – | – | Cytoprotective effect, % cell survival as compared to vehicle DMSO ([7]; normoxia, EC5 concentration 0.25 microM): 108 ± 4%; Cytoprotective effect, % cell survival as compared to vehicle DMSO ([7]; normoxia, EC10 concentration 1.0 microM): 103 ± 3%; Cytoprotective effect, % cell survival as compared to vehicle DMSO ([7]; normoxia, EC20 concentration 4.0 microM): 106 ± 4%; Cytoprotective effect, % cell survival as compared to vehicle DMSO ([7]; normoxia, EC50 concentration 16.0 microM): 103 ± 3%; Cytoprotective effect, % cell survival as compared to vehicle DMSO ([7]; simulated ischemia, EC5 concentration 0.25 microM): 116 ± 8 %; Cytoprotective effect, % cell survival as compared to vehicle DMSO ([7]; simulated ischemia, EC10 concentration 1.0 microM): 107 ± 3%; Cytoprotective effect, % cell survival as compared to vehicle DMSO ([7]; simulated ischemia, EC20 concentration 4.0 microM): 126 ± 2 %; Cytoprotective effect, % cell survival as compared to vehicle DMSO ([7]; simulated ischemia, EC50 concentration 16.0 microM): 127 ± 3 %
